Reference: US8426345B2, “Method of drug design” (Alchemia Limited, priority 2005, dated 2013)

Target: T1, Human SST5 somatostatin receptor (Homo sapiens, UniProt P35346)
T1 construct: expressed in transfected cells; host or cells: HEK-293 EBNA cells (membranes)
Experiment: Filter plate radio-ligand binding assay for SST5 receptor ([125I]SST-14 displacement)
Settings: 3P library; for % SST5 radio-ligand binding displaced at conc 0.001: conc 0.001 μM; for % SST5 radio-ligand binding displaced at conc 0.10: conc 0.10 μM; for % SST5 radio-ligand binding displaced at conc 0.5: conc 0.5 μM; for % SST5 radio-ligand binding displaced at conc 1.0: conc 1.0 μM; for % SST5 radio-ligand binding displaced at conc 10: conc 10 μM; for % SST5 radio-ligand binding displaced at conc 0.25: conc 0.25 μM

T1 sequence (P35346 whole entry): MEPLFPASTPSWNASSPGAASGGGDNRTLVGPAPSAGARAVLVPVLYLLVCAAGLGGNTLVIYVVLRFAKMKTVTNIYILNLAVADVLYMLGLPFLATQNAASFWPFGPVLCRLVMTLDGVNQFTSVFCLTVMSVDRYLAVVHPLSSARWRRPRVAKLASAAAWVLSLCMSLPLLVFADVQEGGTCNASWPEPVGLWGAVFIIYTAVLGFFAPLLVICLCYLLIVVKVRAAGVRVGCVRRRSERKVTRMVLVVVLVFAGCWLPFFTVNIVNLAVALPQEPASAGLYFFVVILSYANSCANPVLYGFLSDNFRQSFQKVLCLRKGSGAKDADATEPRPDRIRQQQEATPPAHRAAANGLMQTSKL

SMILES | % SST5 radio-ligand binding displaced at conc 0.001 | % SST5 radio-ligand binding displaced at conc 0.10 | % SST5 radio-ligand binding displaced at conc 0.5 | % SST5 radio-ligand binding displaced at conc 1.0 | % SST5 radio-ligand binding displaced at conc 10 | % SST5 radio-ligand binding displaced at conc 0.25
COCC1OC(OCc2ccc3ccccc3c2)C(NC(=O)CCN)C(OCc2ccccc2)C1O (mixture of isomers) [Compound 64] | − (% SST5 radio-ligand binding displaced at cone (μM) −<40%) | + (% SST5 radio-ligand binding displaced at cone (μM) 60>+>40%) | ++ (% SST5 radio-ligand binding displaced at conc (μM) >60%) | ++ (% SST5 radio-ligand binding displaced at conc (μM) >60%) | ++ (% SST5 radio-ligand binding displaced at conc (μM) >60%) | –
COCC1OC(OCc2ccc3ccccc3c2)C(NC(=O)CCN)C(OCc2ccccc2)C1O (mixture of isomers) [Compound 65] | – | – | – | – | ++ (% SST5 radio-ligand binding displaced at conc (μM) >60%) | –
COCC1OC(OCc2ccc3ccccc3c2)C(NC(=O)CCN)C(OCc2ccc(Cl)cc2)C1O (mixture of isomers) [Compound 66] | − (% SST5 radio-ligand binding displaced at cone (μM) −<40%) | − (% SST5 radio-ligand binding displaced at cone (μM) −<40%) | ++ (% SST5 radio-ligand binding displaced at conc (μM) >60%) | ++ (% SST5 radio-ligand binding displaced at conc (μM) >60%) | ++ (% SST5 radio-ligand binding displaced at conc (μM) >60%) | –
COCC1OC(OCc2ccc3ccccc3c2)C(NC(=O)CCN)C(OCc2ccc(Cl)cc2)C1O (mixture of isomers) [Compound 67] | – | – | – | – | ++ (% SST5 radio-ligand binding displaced at conc (μM) >60%) | –
COCC1OC(OCc2ccc3ccccc3c2)C(NC(=O)CCN)C(OCc2ccc(-c3ccccc3)cc2)C1O (mixture of isomers) [Compound 68] | − (% SST5 radio-ligand binding displaced at cone (μM) −<40%) | − (% SST5 radio-ligand binding displaced at cone (μM) −<40%) | ++ (% SST5 radio-ligand binding displaced at conc (μM) >60%) | ++ (% SST5 radio-ligand binding displaced at conc (μM) >60%) | ++ (% SST5 radio-ligand binding displaced at conc (μM) >60%) | − (% SST5 radio-ligand binding displaced at cone (μM) −<40%)
COCC1OC(OCc2ccc3ccccc3c2)C(NC(=O)CCN)C(OCc2ccc3ccccc3c2)C1O (mixture of isomers) [Compound 69] | + (% SST5 radio-ligand binding displaced at cone (μM) 60>+>40%) | ++ (% SST5 radio-ligand binding displaced at conc (μM) >60%) | ++ (% SST5 radio-ligand binding displaced at conc (μM) >60%) | ++ (% SST5 radio-ligand binding displaced at conc (μM) >60%) | ++ (% SST5 radio-ligand binding displaced at conc (μM) >60%) | –
NCCC(=O)NC1C(OCc2ccc3ccccc3c2)OC(COCc2ccc3ccccc3c2)C(O)C1OCc1ccc(Cl)cc1 (mixture of isomers) [Compound 70] | – | – | – | + (% SST5 radio-ligand binding displaced at cone (μM) 60>+>40%) | – | − (% SST5 radio-ligand binding displaced at cone (μM) −<40%)
NCCC(=O)NC1C(OCc2ccc3ccccc3c2)OC(COCc2ccccc2)C(O)C1OCc1ccc(Cl)cc1 (mixture of isomers) [Compound 71] | – | – | – | ++ (% SST5 radio-ligand binding displaced at conc (μM) >60%) | – | − (% SST5 radio-ligand binding displaced at cone (μM) −<40%)
NCCC(=O)NC1C(OCc2ccc3ccccc3c2)OC(COCc2ccc(Cl)cc2)C(O)C1OCc1ccc(Cl)cc1 (mixture of isomers) [Compound 72] | – | – | – | ++ (% SST5 radio-ligand binding displaced at conc (μM) >60%) | – | − (% SST5 radio-ligand binding displaced at cone (μM) −<40%)
NCCC(=O)NC1C(OCc2ccc3ccccc3c2)OC(COCc2ccc3ccccc3c2)C(O)C1OCc1ccc2ccccc2c1 (mixture of isomers) [Compound 73] | – | – | – | + (% SST5 radio-ligand binding displaced at cone (μM) 60>+>40%) | – | − (% SST5 radio-ligand binding displaced at cone (μM) −<40%)
NCCC(=O)NC1C(OCc2ccc3ccccc3c2)OC(COCc2ccccc2)C(O)C1OCc1ccc2ccccc2c1 (mixture of isomers) [Compound 74] | – | – | – | ++ (% SST5 radio-ligand binding displaced at conc (μM) >60%) | – | − (% SST5 radio-ligand binding displaced at cone (μM) −<40%)
NCCC(=O)NC1C(OCc2ccc3ccccc3c2)OC(COCc2ccc(Cl)cc2)C(O)C1OCc1ccc2ccccc2c1 (mixture of isomers) [Compound 75] | – | – | – | ++ (% SST5 radio-ligand binding displaced at conc (μM) >60%) | – | − (% SST5 radio-ligand binding displaced at cone (μM) −<40%)
NCCC(=O)NC1C(OCc2ccc3ccccc3c2)OC(COCc2ccc3ccccc3c2)C(O)C1OCc1ccccc1 (mixture of isomers) [Compound 76] | – | – | – | ++ (% SST5 radio-ligand binding displaced at conc (μM) >60%) | – | − (% SST5 radio-ligand binding displaced at cone (μM) −<40%)
NCCC(=O)NC1C(OCc2ccc3ccccc3c2)OC(COCc2ccccc2)C(O)C1OCc1ccccc1 (mixture of isomers) [Compound 77] | – | – | – | ++ (% SST5 radio-ligand binding displaced at conc (μM) >60%) | – | − (% SST5 radio-ligand binding displaced at cone (μM) −<40%)
NCCC(=O)NC1C(OCc2ccc3ccccc3c2)OC(COCc2ccc(Cl)cc2)C(O)C1OCc1ccccc1 (mixture of isomers) [Compound 78] | – | – | – | ++ (% SST5 radio-ligand binding displaced at conc (μM) >60%) | – | + (% SST5 radio-ligand binding displaced at cone (μM) 60>+>40%)
COC1C(O)C(COCc2ccccc2)OC(OCc2ccc3ccccc3c2)C1NC(=O)CCN (mixture of isomers) [Compound 93] | – | – | – | + (% SST5 radio-ligand binding displaced at cone (μM) 60>+>40%) | – | − (% SST5 radio-ligand binding displaced at cone (μM) −<40%)
COC1C(O)C(COCc2ccc3ccccc3c2)OC(OCc2ccc3ccccc3c2)C1NC(=O)CCN (mixture of isomers) [Compound 97] | – | – | – | + (% SST5 radio-ligand binding displaced at cone (μM) 60>+>40%) | – | − (% SST5 radio-ligand binding displaced at cone (μM) −<40%)
COCC1OC(OCc2ccc3ccccc3c2)C(NC(=O)CCCN)C(OCc2ccccc2)C1O (mixture of isomers) [Compound 120] | – | – | + (% SST5 radio-ligand binding displaced at cone (μM) 60>+>40%) | – | ++ (% SST5 radio-ligand binding displaced at conc (μM) >60%) | –
COC1C(O)C(COCc2ccc(-c3ccccc3)cc2)OC(OCc2ccc3ccccc3c2)C1NC(=O)CCCN (mixture of isomers) [Compound 121] | – | – | + (% SST5 radio-ligand binding displaced at cone (μM) 60>+>40%) | – | + (% SST5 radio-ligand binding displaced at cone (μM) 60>+>40%) | –
COC1C(O)C(COCc2ccc3ccccc3c2)OC(OCc2ccc3ccccc3c2)C1NC(=O)CCCN (mixture of isomers) [Compound 122] | – | – | ++ (% SST5 radio-ligand binding displaced at conc (μM) >60%) | – | ++ (% SST5 radio-ligand binding displaced at conc (μM) >60%) | –
COC1C(O)C(COCc2ccccc2)OC(OCc2ccc3ccccc3c2)C1NC(=O)CCCN (mixture of isomers) [Compound 123] | – | – | − (% SST5 radio-ligand binding displaced at cone (μM) −<40%) | – | − (% SST5 radio-ligand binding displaced at cone (μM) −<40%) | –
COC1C(O)C(COCc2ccc(Cl)cc2)OC(OCc2ccc3ccccc3c2)C1NC(=O)CCCN (mixture of isomers) [Compound 124] | – | – | − (% SST5 radio-ligand binding displaced at cone (μM) −<40%) | – | + (% SST5 radio-ligand binding displaced at cone (μM) 60>+>40%) | –
COC1C(O)C(COCc2cccc(O)c2)OC(OCc2ccc3ccccc3c2)C1NC(=O)CCCN (mixture of isomers) [Compound 125] | – | – | − (% SST5 radio-ligand binding displaced at cone (μM) −<40%) | – | + (% SST5 radio-ligand binding displaced at cone (μM) 60>+>40%) | –
COCC1OC(OCc2ccc3ccccc3c2)C(NC(=O)CCCN)C(OCc2ccccc2)C1O (mixture of isomers) [Compound 126] | − (% SST5 radio-ligand binding displaced at cone (μM) −<40%) | − (% SST5 radio-ligand binding displaced at cone (μM) −<40%) | + (% SST5 radio-ligand binding displaced at cone (μM) 60>+>40%) | + (% SST5 radio-ligand binding displaced at cone (μM) 60>+>40%) | ++ (% SST5 radio-ligand binding displaced at conc (μM) >60%) | –
COCC1OC(OCc2ccc3ccccc3c2)C(NC(=O)CCCN)C(OCc2ccc(Cl)cc2)C1O (mixture of isomers) [Compound 127] | − (% SST5 radio-ligand binding displaced at cone (μM) −<40%) | − (% SST5 radio-ligand binding displaced at cone (μM) −<40%) | ++ (% SST5 radio-ligand binding displaced at conc (μM) >60%) | ++ (% SST5 radio-ligand binding displaced at conc (μM) >60%) | ++ (% SST5 radio-ligand binding displaced at conc (μM) >60%) | –
